Laboratory results published in patent US20080280862A1, “Methods, compositions, and kits for the treatment of pain” (priority 2007, published 2008).

What was measured:
[1] = system: acetic acid-induced pain model in mice; test: Acetic acid pain model, writhes; assay type: in vivo, ICR mice
Experimental: The acetic acid is a reliable fast model for noxious/visceral pain usually used for screening potential drug candidates for their analgesic activity. The effects of test article combinations on pain generation are assayed using the acetic acid-induced pain model in mice. Adult male ICR mice are administered study drugs intraperitoneally (vehicle, TCA, steroid or TCA/Steroid test article combinations) once daily for 2 days (day −2 and day −1) and 30 minutes prior to the acetic acid injection on day 0 (time=0). […] To elicit a pain response, dilute acetic acid (10 ml/kg of 0.6% solution) is injected intraperitoneally into the abdomen. The animal is placed in an observation chamber, and 5 minutes after acetic acid administration, the number of writhes is counted and recorded over a five minute period by a blinded observer. A writhe is considered as a contraction of the abdominal muscles accompanied by an elongation of the body and extension of the hind limb. Results are expressed as number of writhes.

[2] = system: carrageenan-induced pain model in rats; test: Carrageenan pain model, mechanical allodynia by Von Frey filaments; assay type: in vivo, Sprague-Dawley rats; settings: for Mean AUC ± SEM: AUC from 20 minutes through 120 minutes following carrageenan injection; for Mean change from baseline ± SEM: Experiment Two; for mean change from baseline: Table 4
Experimental: The carrageenan model is a fast, reliable model used to assess the ability of analgesics to block inflammatory pain. The analgesic effects of test article combinations on pain generation are assayed using the carrageenan-induced pain model in rats. Adult male Sprague-Dawley rats are administered study drugs intraperitoneally (vehicle, tricyclic compound (TCA), steroid or TCA/Steroid test article combinations) once daily for 2 days (day −2 and day −1) and 30 minutes prior to the carrageenan injection on day 0 (time=0). For the carrageenan injection, animals are lightly anesthetized and 0.1 ml of 2% carrageenan is injected into the plantar surface of the right hind paw. The positive control diclofenac at a dose of 25 mg/kg is administered intraperitoneally immediately before the carrageenan injection. Paw volumes (right and left) are measured using a plathysmometer before drug administration on day −2 and serve as a baseline measurement. The paw volumes are measured again two hours post carrageenan injection. The degree of mechanical allodynia is measured by a blinded observer using Von Frey filaments applied to the plantar surface of the hind paws in an increasing numerical order. Each filament increases the force applied on the paw. The filaments are applied until animal paw withdrawal is achieved. This procedure is carried out before drug administration (day −2), on day −1 and on day 0 at time=0, 20, 40, 60, 80 and 120 minutes post-carrageenan. The force (expressed in grams) required for paw withdrawal after carrageenan injection is subtracted from the force required for paw withdrawal before carrageenan injection. Results are expressed as mean change from baseline across five timepoints post carrageenan injection in Table 4.
For a synergy calculation, experimental data from the carrageenan study are fitted to a median-effect model and used to calculate the parameters' median-effect dose (Dm), slope (m), correlation coefficient (r), combination index (CI) and dose-reduction index (DRI). In addition, the probability of pain inhibition occurring after single-component (nortriptyline) versus the combination drug treatments are calculated from the negative change from baseline data using a Bayesian sensitivity analysis. The likelihood of pain inhibition is characterized for nortriptyline administered alone (1 mg/kg or 3 mg/kg) versus the fixed-dose combination treatments [prednisolone (0.3 mg/kg):nortriptyline (1 mg/kg) or prednisolone (1 mg/kg):nortriptyline (3 mg/kg)] each evaluated at 60 and 80 minutes for analgesic effect.
In another example, the effects of test article combinations on pain inhibition were assayed using the carrageenan model in rodents. Desipramine was tested alone and in combination at 0.3, 1, and 3 mg/kg and prednisolone was tested similarly at 0.3, 1 and 3 mg/kg IP.

Structure (SMILES): CNCCC=C1c2ccccc2CCc2ccccc21 [Nortriptyline]
- Mean # of writhes per 5 minutes ± SEM ([1]; 1 mg/kg ip): 11.78 ± 3.44
- Mean # of writhes per 5 minutes ± SEM ([1]; 5 mg/kg ip): 7.79 ± 3.81
- Mean # of writhes per 5 minutes ± SEM ([1]; 10 mg/kg ip): 7.57 ± 2.53
- Mean # of writhes per 5 minutes ± SEM ([1]; 15 mg/kg ip): 2.07 ± 1.42
- Mean AUC ± SEM ([2]; 1 mg/Kg): 1895 ± 547.01
- Mean AUC ± SEM ([2]; 3 mg/Kg): 3082 ± 275.81
- Mean change from baseline ± SEM ([2]; first set of rows, 1 mg/kg, 20 minutes): 16.94 ± 7.35 g
- Mean change from baseline ± SEM ([2]; first set of rows, 1 mg/kg, 40 minutes): 17.01 ± 7.37 g
- Mean change from baseline ± SEM ([2]; first set of rows, 1 mg/kg, 60 minutes): 22.36 ± 4.36 g
- Mean change from baseline ± SEM ([2]; first set of rows, 1 mg/kg, 80 minutes): 29.59 ± 4.80 g
- Mean change from baseline ± SEM ([2]; first set of rows, 1 mg/kg, 120 minutes): 37.64 ± 5.20 g
- Mean change from baseline ± SEM ([2]; first set of rows, 3 mg/kg, 20 minutes): 5.83 ± 6.21 g
- Mean change from baseline ± SEM ([2]; first set of rows, 3 mg/kg, 40 minutes): 5.83 ± 6.21 g
- Mean change from baseline ± SEM ([2]; first set of rows, 3 mg/kg, 60 minutes): 12.87 ± 5.09 g
- Mean change from baseline ± SEM ([2]; first set of rows, 3 mg/kg, 80 minutes): 15.84 ± 5.10 g
- Mean change from baseline ± SEM ([2]; first set of rows, 3 mg/kg, 120 minutes): 35.98 ± 4.09 g
- Mean change from baseline ± SEM ([2]; second set of rows, 1 mg/kg, 20 minutes): 17.00 ± 6.43 g
- Mean change from baseline ± SEM ([2]; second set of rows, 1 mg/kg, 40 minutes): -4.25 ± 4.25 g
- Mean change from baseline ± SEM ([2]; second set of rows, 1 mg/kg, 60 minutes): 32.50 ± 4.96 g
- Mean change from baseline ± SEM ([2]; second set of rows, 1 mg/kg, 80 minutes): 29.75 ± 4.25 g
- Mean change from baseline ± SEM ([2]; second set of rows, 1 mg/kg, 120 minutes): 33.88 ± 5.21 g
- Mean change from baseline ± SEM ([2]; second set of rows, 3 mg/kg, 20 minutes): 17.00 ± 6.43 g
- Mean change from baseline ± SEM ([2]; second set of rows, 3 mg/kg, 40 minutes): 0.00 ± 6.43 g
- Mean change from baseline ± SEM ([2]; second set of rows, 3 mg/kg, 60 minutes): 17.00 ± 6.43 g
- Mean change from baseline ± SEM ([2]; second set of rows, 3 mg/kg, 80 minutes): 0.00 ± 0.00 g
- Mean change from baseline ± SEM ([2]; second set of rows, 3 mg/kg, 120 minutes): 0.00 ± 0.00 g
- mean change from baseline ([2]; 1 mg/kg ip, 20 minutes post carrageenan): 25.50 ± 7.90 grams
- mean change from baseline ([2]; 1 mg/kg ip, 40 minutes post carrageenan): −4.70 ± 8.13 grams
- mean change from baseline ([2]; 1 mg/kg ip, 60 minutes post carrageenan): −59.30 ± 10.6 grams
- mean change from baseline ([2]; 1 mg/kg ip, 80 minutes post carrageenan): −99.70 ± 13.75 grams
- mean change from baseline ([2]; 1 mg/kg ip, 120 minutes post carrageenan): −146.90 ± 19.62 grams
- mean change from baseline ([2]; 3 mg/kg ip, 20 minutes post carrageenan): 7.40 ± 10.10 grams
- mean change from baseline ([2]; 3 mg/kg ip, 40 minutes post carrageenan): −49.20 ± 11.54 grams
- mean change from baseline ([2]; 3 mg/kg ip, 60 minutes post carrageenan): −109.20 ± 11.54 grams
- mean change from baseline ([2]; 3 mg/kg ip, 80 minutes post carrageenan): −169.20 ± 11.54 grams
- mean change from baseline ([2]; 3 mg/kg ip, 120 minutes post carrageenan): −205.40 ± 11.35 grams
- mean change from baseline ([2]; 10 mg/kg ip, 20 minutes post carrageenan): −4.00 ± 8.20 grams
- mean change from baseline ([2]; 10 mg/kg ip, 40 minutes post carrageenan): −68.60 ± 10.46 grams
- mean change from baseline ([2]; 10 mg/kg ip, 60 minutes post carrageenan): −112.80 ± 13.51 grams
- mean change from baseline ([2]; 10 mg/kg ip, 80 minutes post carrageenan): −157.00 ± 17.21 grams
- mean change from baseline ([2]; 10 mg/kg ip, 120 minutes post carrageenan): −185.80 ± 20.18 grams
- mean change from baseline ([2]; 20 mg/kg ip, 20 minutes post carrageenan): −17.60 ± 5.89 grams
- mean change from baseline ([2]; 20 mg/kg ip, 40 minutes post carrageenan): −74.20 ± 7.72 grams
- mean change from baseline ([2]; 20 mg/kg ip, 60 minutes post carrageenan): −130.80 ± 10.37 grams
- mean change from baseline ([2]; 20 mg/kg ip, 80 minutes post carrageenan): −190.80 ± 10.37 grams
- mean change from baseline ([2]; 20 mg/kg ip, 120 minutes post carrageenan): −255.40 ± 14.97 grams
- decrease of median-effect dose (Dm) after co-administration compared to the monotherapy ([2]; median-effect model, prednisolone/nortriptyline 1:3 fixed ratios): 4 fold
